In ChEMBL document CHEMBL6115043, “Novel 5,6-Fused and 6,6-Fused Bicyclic Compounds as 15-Prostaglandin Dehydrogenase Modulators” (ACS Med Chem Lett, 2025):

Assays:
[1] = molecular target: T1, 15-hydroxyprostaglandin dehydrogenase [NAD(+)] (Homo sapiens, UniProt P15428); assay: Inhibition of 15-PGDH in human A549 cells assessed as increase in IL-1beta-stimulated PGE2 levels measured after 24 hrs by competitive HTRF assay; type: cell-based
T1 sequence (P15428 whole entry): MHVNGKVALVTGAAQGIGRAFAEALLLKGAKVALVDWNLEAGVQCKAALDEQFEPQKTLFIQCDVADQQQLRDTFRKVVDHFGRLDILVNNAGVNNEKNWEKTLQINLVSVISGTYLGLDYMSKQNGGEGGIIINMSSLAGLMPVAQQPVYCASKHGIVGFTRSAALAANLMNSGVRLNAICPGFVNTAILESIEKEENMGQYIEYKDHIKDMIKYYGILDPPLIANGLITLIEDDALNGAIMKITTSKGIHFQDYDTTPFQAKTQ

[2] = molecular target: T1, 15-hydroxyprostaglandin dehydrogenase [NAD(+)]; assay: Inhibition of recombinant human 15-PGDH using PGE2 and beta-NAD+ as substrate preincubated for 15 mins followed by substrate addition and measured after 60 mins

| SMILES | IC50 [1] [nM] | IC50 [2] [nM] |
| --- | --- | --- |
| Cn1cc2cc(-c3ccc4nc([C@H](O)C5CC(F)(F)C5)sc4n3)cnc2n1 | 0.05 | 0.22 |
| Cn1cc2cc(-c3ccc4cc([C@]5(O)C[C@@H](C(F)(F)F)C5)sc4n3)cnc2n1 | 0.05 |  |
